A short description of the series: Solubility and permeability (Biopharmaceutical Classification System). The format is physicochemical.

Regarding `CC12CC3CC(C)(C1)CC(N)(C3)C2.Cl` [Memantine HCl, 1-amino-3,5-dimethyladamantane hydrochloride], the solubility result is on record as “highly soluble”.

These data come from patent US20100028427A1, “IMMEDIATE RELEASE FORMULATIONS OF 1-AMINOCYCLOHEXANE COMPOUNDS, MEMANTINE AND NERAMEXANE” (Forest Laboratories, Inc., priority 2004, published 2010).
